In US9255100B2 (BAYER INTELLECTUAL PROPERTY GMBH, priority 2010, dated 2016):

What was measured:
[1] = molecular target: T1, N-terminally GST-tagged human full length recombinant Mps-1 kinase (Homo sapiens, UniProt P33981); test: Mps-1 kinase assay (TR-FRET); assay type: biochemical; conditions: Mps1 IC50 [nM], 10 μM ATP, 1 μM peptide substrate, 60 min at 22° C.
T1 construct: N-terminally GST-tagged human full length recombinant Mps-1 kinase; purchased Invitrogen, Karslruhe, Germany PV4071
T1 sequence (P33981 1-857): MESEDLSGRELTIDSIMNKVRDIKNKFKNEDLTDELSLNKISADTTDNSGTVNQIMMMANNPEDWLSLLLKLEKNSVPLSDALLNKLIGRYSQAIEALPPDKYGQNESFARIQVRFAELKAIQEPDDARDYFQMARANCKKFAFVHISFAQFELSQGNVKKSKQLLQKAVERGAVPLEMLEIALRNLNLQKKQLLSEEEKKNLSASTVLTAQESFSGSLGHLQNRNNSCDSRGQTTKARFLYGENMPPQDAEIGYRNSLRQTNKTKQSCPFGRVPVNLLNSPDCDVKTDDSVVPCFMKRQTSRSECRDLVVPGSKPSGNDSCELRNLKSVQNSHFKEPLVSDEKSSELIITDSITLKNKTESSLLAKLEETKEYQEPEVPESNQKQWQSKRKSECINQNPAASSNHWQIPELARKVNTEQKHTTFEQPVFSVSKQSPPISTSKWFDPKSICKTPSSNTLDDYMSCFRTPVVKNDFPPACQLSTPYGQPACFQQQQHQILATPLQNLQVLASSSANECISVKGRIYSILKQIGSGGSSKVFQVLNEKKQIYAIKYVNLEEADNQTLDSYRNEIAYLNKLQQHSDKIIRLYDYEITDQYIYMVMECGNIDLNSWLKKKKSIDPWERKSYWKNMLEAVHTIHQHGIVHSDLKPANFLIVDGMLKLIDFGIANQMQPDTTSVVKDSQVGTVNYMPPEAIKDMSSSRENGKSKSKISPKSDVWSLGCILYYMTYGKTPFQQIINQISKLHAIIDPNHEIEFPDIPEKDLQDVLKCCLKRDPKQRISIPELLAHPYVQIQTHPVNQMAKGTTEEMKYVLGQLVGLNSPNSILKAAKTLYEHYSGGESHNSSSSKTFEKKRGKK
Method in brief: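 GST-tagged full-length recombinant Mps-1 at about 1 nM final, adjusted per lot for linear range, phosphorylated a biotinylated peptide. Product bound Eu-anti-phospho(Ser/Thr) antibody over 1 h at 22° C and was read by TR-FRET to streptavidin-XLent. Compounds scored for kinase inhibition.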

[2] = system: Hepatocytes from Han Wistar rats; test: In vitro metabolic stability in rat hepatocytes (calculation of hepatic in vivo blood clearance and Fmax); assay type: in vitro ADME; conditions: maximal oral bioavailability calculated from half-life in rat hepatocytes, 1 μM test compound
Method: Investigation of In Vitro Metabolic Stability in Rat Hepatocytes (Including Calculation of Hepatic In Vivo Blood Clearance (CL))
Hepatocytes from Han Wistar rats were isolated via a 2-step perfusion method. After perfusion, the liver was carefully removed from the rat: the liver capsule was opened and the hepatocytes were gently shaken out into a Petri dish with ice-cold WME. The resulting cell suspension was filtered through sterile gaze in 50 ml falcon tubes and centrifuged at 50×g for 3 min at room temperature. The cell pellet was resuspended in 30 ml WME and centrifuged through a Percoll® gradient for 2 times at 100×g. The hepatocytes were washed again with Williams' medium E (WME) and resuspended in medium containing 5% FCS. Cell viability was determined by trypan blue exclusion.
For the metabolic stability assay liver cells were distributed in WME containing 5% FCS to glass vials at a density of 1.0×10^6 vital cells/ml. The test compound was added to a final concentration of 1 μM. During incubation, the hepatocyte suspensions were continuously shaken and aliquots were taken at 2, 8, 16, 30, 45 and 90 min, to which equal volumes of cold methanol were immediately added. Samples were frozen at −20° C. over night, after subsequently centrifuged for 15 minutes at 3000 rpm and the supernatant was analyzed with an Agilent 1200 HPLC-system with LCMS/MS detection.
The half-life of a test compound was determined from the concentration-time plot. From the half-life the intrinsic clearances were calculated. Together with the additional parameters liver blood flow, amount of liver cells in vivo and in vitro. The hepatic in vivo blood clearance (CL) and the maximal oral bioavailability (Fmax) was calculated. The following parameter values were used: Liver blood flow—4.2 L/h/kg rat; specific liver weight—32 g/kg rat body weight; liver cells in vivo—1.1×10^8 cells/g liver, liver cells in vitro—0.5×10^6/ml.

For `Cc1cc(-c2cnc3c(NCCN4CCOCC4)cc(Oc4cccc(F)c4F)nn23)ccc1C(=O)NC1CC1` [Example 536, N-cyclopropyl-4-[6-(2,3-difluorophenoxy)-8-{[2-(morpholin-4-yl)ethyl]amino}imidazo[1,2-b]pyridazin-3-yl]-2-methylbenzamide], the IC50 [1] was 0.3 nM and the “Fmax [%]” value [2] was 37%.
With `Cc1ccc(F)cc1Oc1cc(NCC(C)(C)O)c2ncc(-c3ccc(C(=O)NC4CC4)c(C)c3)n2n1` [Example 391, N-cyclopropyl-4-{6-(5-fluoro-2-methylphenoxy)-8-[(2-hydroxy-2-methylpropyl)amino]imidazo[1,2-b]pyridazin-3-yl}-2-methylbenzamide] the IC50 [1] was 0.1 nM and the “Fmax [%]” value [2] was 47%.
